According to patent US9572760B2, “Uses of compounds and mixtures from Antrodia cinnamomea mycelia” (Simpson Biotech Co., Ltd., priority 2013, dated 2017):

Experiments:
cirrhotic animals = experiment: Biochemical analysis of serum (liver damage parameters) in DEN cirrhotic animal model; type: in vivo, Wistar rats; details: compound B 7 mg/kg, compound C 14 mg/kg, ACM 320 mg/kg/day, gastric tube, 5th to 11th week, vs control group
Protocol: Samples of 1 ml blood were gathered from the retro-orbital plexus of each […] and immediately centrifuged at 1300×g at 4° C., plasma was kept at −20° C. for liver function tests. Alanine aminotranferease (ALT), aspartate aminotransferase (AST), total bilirubin and Gamma-glutamyl transpeptidase (γ-GT) levels were determined using commercial enzymatic kits with a colorimetric analyzer (Dri-Chem 3000, Fuji Photo Film Co, Tokyo, Japan).

collagen I and III = experiment: Collagen I and collagen III quantification (ELISA) in rabbit ear scar; type: in vivo, New Zealand white rabbits
Protocol: (§1) The rabbit ear model of hypertrophic scarring was established. In brief, 12 New Zealand white rabbits, weighing 2.5 to 3.0 kg, were prepared for wounding under sterile conditions. Four 1 cm full thickness circular wounds were created down to the cartilage on the ventral side of each ear using a 1 cm punch biopsy. The perichondrial membrane was then dissected off the cartilage using a surgical blade. The test agents including compound B, C and ACM ethanol extract were applied to the wounds of the experimental group ([…] to each wound) every day in concentrations of 1% w/v for 14 days, while the control group received equal amounts of 1% w/v saline.
The quantification of collagen I and III used an ELISA Kit (R & D Systems Inc., Minneapolis, Minn., USA) according to the operation manual.

α-SMA and TGF-β1 = experiment: Western blot of α-SMA and TGF-β1 in rabbit ear scar tissue; type: in vivo, New Zealand white rabbits; details: 1% w/v topical; for level of TGF-β1 expression (Western blot): day 14, compared with the control groups; for levels of α-SMA expression (Western blot): relative to the control group
Protocol: as §1
The scar tissues were lysed; then the protein samples were denatured and then separated on 10.6% polyacrylamide gels, and transferred to the polyvinylidene difluoride membrane. The membranes were incubated in TBS containing 5% nonfat milk and 0.05% Tween-20 for 1 h at room temperature and blotted with primary antibodies (dilution 1:300) at 4° C. overnight. The membranes were washed with TBST for 15 min the next day. Subsequently, the membranes were incubated with horseradish peroxidase-conjugated affinipure goat anti-rabbit antibody (dilution 1:3000) for 1 h at room temperature and washed with TBST for 21 min. The membranes were then detected using ECL. The western blot results were further analyzed with Quantity One software 4.1.1 (Bio-Rad, Hercules, Calif.)

| Structure (SMILES) | serum Alanine aminotranferease (ALT) level (cirrhotic animals) | serum Gamma-glutamyl transpeptidase (γ-GT) level (cirrhotic animals) | serum aspartate aminotransferase (AST) level (cirrhotic animals) | serum total bilirubin level (cirrhotic animals) | collagen III density (collagen I and III; day 7, 1% w/v topical) | collagen I density (collagen I and III; day 14, 1% w/v topical) | collagen III density (collagen I and III; day 14, 1% w/v topical) | level of TGF-β1 expression (Western blot) (α-SMA and TGF-β1) | levels of α-SMA expression (Western blot) (α-SMA and TGF-β1) |
| --- | --- | --- | --- | --- | --- | --- | --- | --- | --- |
| CC(C)=CCOc1ccc(C2=C(CC(C)C)C(=O)NC2=O)cc1 [Compound B, 3-isobutyl-4-[4-(3-methyl-2-butenyloxy)phenyl]-1H-pyrrol-2,5-dione] | significantly reduced | significantly reduced | significantly reduced | significantly reduced | insignificantly decreased | significantly decreased | significantly reduced | significantly decreased | decreased |
| CC(C)=CCOc1ccc(C2=C(CC(C)C)C(=O)N(O)C2=O)cc1 [Compound C, 3-isobutyl-4-[4-(3-methyl-2-butenyloxy)phenyl]-1H-pyrrol-1-ol-2,5-dione] | significantly reduced | significantly reduced | significantly reduced | significantly reduced | insignificantly decreased | significantly decreased | significantly reduced | significantly decreased | decreased |
